Experimental data: US20240299360A1, “ADAMTS INHIBITORS, PREPARATION METHODS AND MEDICINAL USES THEREOF” (Jiangsu Hengrui Pharmaceuticals Co., Ltd., priority 2020, published 2024)

How the values were obtained:
[1] = biological target: ADAMTS-4 recombinant protein (Homo sapiens (Human), UniProt O75173); assay: In vitro fluorescence (FRET-peptide) enzymatic assay of ADAMTS-4 activity; assay type: biochemical; conditions: FRET peptide substrate 15 μM, 10 nM enzyme, 37° C. 3 hours
Method: (§1) A FRET (fluorescence resonance energy transfer) peptide was cleaved by recombinant ADAMTS-4 or ADAMTS-5 proteins into two separate fragments resulting in an increase of fluorescence signal which was quantified. The peptide was 5-FAM-[…](5-TAMRA)K-NH2, customized from ANASPEC. ADAMTS-4 recombinant protein (catalog #4307-AD) and ADAMTS-5 recombinant protein (catalog #2198-AD) were purchased from R&D Systems.
(§2) An assay buffer containing 50 mM HEPES pH 7.5, 100 mM NaCl, 5 mM CaCl2, 0.1% CHAPS and 5% Glycerol was prepared. A volume of 2.5 μl of compound in the assay buffer was dispensed to a 384-well plate, and 2.5 μl of ADAMTS-4 or ADAMTS-5 protein (final concentration in the reaction was 10 nM) was added. The compounds and proteins were pre-incubated at room temperature for 15 minutes. Then, 5 μl of substrate was added to each well. The final substrate concentrations for ADAMTS-4 and ADAMTS-5 were 15 μM and 8 μM, respectively. The fluorescence signal in each well was determined, after incubation at 37° C. for 3 hours, on a TECAN plate reader (Excitation, 490 nm; Emission, 520 nm).
(§3) The data was inputted into GraphPad Prism, and the IC50 values were calculated using function “log (inhibitor) vs. response—Variable slope (four parameters)”. (See Table 1)

[2] = biological target: T1, ADAMTS-5 recombinant protein (Homo sapiens (Human), UniProt Q9UNA0); assay: In vitro fluorescence (FRET-peptide) enzymatic assay of ADAMTS-5 activity; assay type: biochemical; conditions: FRET peptide substrate 8 μM, 10 nM enzyme, 37° C. 3 hours
T1 sequence (Q9UNA0 262-622): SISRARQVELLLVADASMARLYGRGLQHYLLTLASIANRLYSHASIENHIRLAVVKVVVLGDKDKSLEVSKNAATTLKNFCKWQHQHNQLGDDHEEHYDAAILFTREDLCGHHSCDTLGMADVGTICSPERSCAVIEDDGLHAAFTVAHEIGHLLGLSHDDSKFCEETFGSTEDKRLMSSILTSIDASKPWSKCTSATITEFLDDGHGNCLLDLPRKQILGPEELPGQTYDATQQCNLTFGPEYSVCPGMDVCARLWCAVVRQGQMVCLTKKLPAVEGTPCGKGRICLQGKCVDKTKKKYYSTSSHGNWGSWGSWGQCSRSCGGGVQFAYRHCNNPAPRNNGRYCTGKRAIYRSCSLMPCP
Method: as §1, §2, §3

[3] = biological target: T1, ADAMTS-5 recombinant protein; assay: In vitro ELISA of ADAMTS-5 activity (Aggrecan-IGD enzymatic assay); assay type: biochemical; conditions: aggrecan-IGD substrate, ARGSVIL-peptide ELISA, 37° C. 45 minutes
Method: In this assay, the enzymatic activity of recombinant ADAMTS-5 protein (catalog #2198-AD, R&D Systems) was assayed with a protein substrate, the aggrecan IGD protein. The aggrecan IGD protein is a polypeptide connecting human aggrecan globular domains 1 and 2 (T331-G458) expressed in E. Coli with a C-terminal His-tag (catalog #30411000, BIOTEZ). The enzymatic product ARGSVIL-peptide was detected using an ELISA kit from BioTEZ (catalog #30510111).
An assay buffer containing 50 mM HEPES pH 7.5, 100 mM NaCl, 5 mM CaCl2), 0.1% CHAPS and 5% Glycerol was prepared. Recombinant ADAMTS-5 protein was diluted to 0.3 nM in the assay buffer. Ten μl of […] and 10 μl of compound solution was transferred to each well of a 96-well plate and incubated at room temperature for 15 minutes. Substrate aggrecan-IGD was diluted to 100 nM with the assay buffer and 20 μl was added to each well. The plate was incubated at 37° C. for 45 minutes. After incubation, the newly generated epitope ARGSVIL-peptides were measured using the Aggrecanase Activity ELISA Assay Kit following the manufacturer's instructions. Then, 100 μl of stop solution was added and the absorbance of each well was read at 450 nm, using […] as reference on a TECAN plate reader.
A standard curve of the ELISA assay was generated in GraphPad Prism using Sigmoidal 4PL function and the corresponding peptide concentrations were calculated based on the standard curve. The IC50 values were calculated using function “log (inhibitor) vs. response—Variable slope (four parameters)”. (See Table 2).

[4] = test system: mouse femoral head cartilage; assay: Mouse explant assay (IL-1α induced GAG release); assay type: cell-based; conditions: inhibition of GAG release, IL-1α 1 ng/ml, 72 hours; for inhibition at 2 µM: compound 2 μM; for inhibition at 20 µM: compound 20 μM
Method: In this assay, fresh mouse femoral head cartilage was treated with IL-1α protein (Sigma-Aldrich, catalog #12778) in culture media, which induces the cartilage catabolism. Then, the GAGs attached to the cleaved aggrecan fragments (released in the media) and the GAGs attached to the intact aggrecan were measured by dimethylmethylene blue dye in the Glycosaminoglycans Assay Kit (Chondrex, catalog #6022).
Femoral head cartilage samples were isolated from mice (25 days old, male, C57BL/6, from Charles River Lab) and put into 2.0 ml tubes filled-up with media (DMEM, 10% FBS, 4 mM Glutamine, penicillin-streptomycin, 20 mM HEPES). Two hundred μl of media without FBS was added to each well of a 48-well plate, and one piece of cartilage was transferred to a well in the plate. Then the media was aspirated, and compounds and IL-1α protein were added to the plate in a total volume of 400 μl of fresh media without FBS. The final concentration of IL-1α was 1 ng/ml. The plate was incubated at 37° C. for 72 hours in a humidified incubator with 5% CO2 supply.
The supernatant was transferred to a 1.5 ml tube and kept at −20° C. Each cartilage sample was transferred to another 1.5 ml tube containing 400 μl of freshly made papain solution. The papain solution contained 125 μg/ml papain (Sigma-Aldrich, catalog #P3125), 0.1 M sodium acetate (Sigma-Aldrich, catalog #S7899), pH 5.5 and 5 mM EDTA and 5 mM L-cysteine-HCl (Sigma-Aldrich, catalog #C7880). The cartilage samples were kept rocking in a 60° C. water bath for 24 hours. The lysates were vortexed for 10 seconds and spinned at 10,000 rpm for 2 minutes.
Both the supernatant and the lysate samples were diluted with PBS and mixed with 100 μl of dye from the Glycosaminoglycans Assay Kit. The optical density from each well was determined with a TECAN plate reader set to a wavelength of 525 nm.
The concentrations of GAGs in the supernatant and lysates were determined based on the standard curve with a dose range of chondroitin sulfate provided in the kit. The percentage of GAG release was calculated as the following
The test compound effect was expressed as the percent of inhibition using the following formula: […]

Sequence of ADAMTS-4 recombinant protein (O75173 213-685): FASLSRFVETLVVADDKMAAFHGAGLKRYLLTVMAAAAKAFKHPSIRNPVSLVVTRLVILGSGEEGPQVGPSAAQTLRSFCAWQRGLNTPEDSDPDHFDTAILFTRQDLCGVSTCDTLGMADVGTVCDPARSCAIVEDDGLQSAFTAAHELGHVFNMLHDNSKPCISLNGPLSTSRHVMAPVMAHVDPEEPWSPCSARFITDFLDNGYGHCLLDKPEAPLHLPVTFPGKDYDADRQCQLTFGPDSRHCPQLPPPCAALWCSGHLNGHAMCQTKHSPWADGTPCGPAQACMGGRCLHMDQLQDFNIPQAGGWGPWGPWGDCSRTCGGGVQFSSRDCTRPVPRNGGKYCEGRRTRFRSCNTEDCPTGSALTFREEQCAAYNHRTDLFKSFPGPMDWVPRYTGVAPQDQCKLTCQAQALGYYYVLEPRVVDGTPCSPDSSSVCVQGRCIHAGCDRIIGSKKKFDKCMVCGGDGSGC

| IC50 [1] [nM] | IC50 [2] [nM] | IC50 [3] [nM] | Compound | inhibition at 2 µM [4] [%] | inhibition at 20 µM [4] [%] |
| --- | --- | --- | --- | --- | --- |
| 46 | 73 | 240 | COc1ccc2c(c1)CCN(C(=O)CC[C@@]1(C3CC3)NC(=O)NC1=O)CC2 [Example 5, (S)-5-cyclopropyl-5-(3-(7-methoxy-4,5-dihydro-1H-benzo [d]azepin-3 (2H)-yl)-3-oxopropyl)imidazolidine-2,4-dione] | 19 | 51 |
| 22 | 37 | – | O=C1NC(=O)[C@](CCC(=O)N2Cc3cc(Cl)c(Cl)cc3C2)(C2CC2)N1 [Example 20, (S)-5-cyclopropyl-5-(3-(5,6-dichloroisoindolin-2-yl)-3-oxopropyl)imidazolidine-2,4-dione] | 67 | 100 |
| 40 | 42 | 72 | O=C1NC(=O)C(CCC(=O)N2Cc3cc(Cl)c(Cl)cc3C2)(c2ccccn2)N1 (stereo not shown) [Example 61, 5-(3-(5,6-dichloroisoindolin-2-yl)-3-oxopropyl)-5-(pyridin-2-yl)imidazolidine-2,4-dione] | – | – |
| 16 | 21 | 31 | O=C1NC(=O)C(CC(COCc2ccccc2)C(=O)N2Cc3ccc(C(F)(F)F)cc3C2)(C2CC2)N1 (stereo not shown) [Example 65, 5-(2-((benzyloxy)methyl)-3-oxo-3-(5-(trifluoromethyl)isoindolin-2-yl)propyl)-5-cyclopropylimidazolidine-2,4-dione] | – | – |
| 43 | 52 | 83 | CC1c2cc(Cl)c(Cl)cc2CN1C(=O)CC[C@@]1(C2CC2)NC(=O)NC1=O (stereo partly drawn) [Example 66, (5S)-5-cyclopropyl-5-(3-(5,6-dichloro-1-methylisoindolin-2-yl)-3-oxopropyl)imidazolidine-2,4-dione] | – | – |
| 54 | 26 | 29 | [2H]C1([2H])c2cc(Cl)c(C(F)(F)F)cc2C(C)N1C(=O)CC[C@@]1(C2CC2)NC(=O)NC1=O (stereo partly drawn) [Example 71, (5S)-5-(3-(5-chloro-1-methyl-6-(trifluoromethyl)isoindolin-2-yl-3,3-d2)-3-oxopropyl)-5-cyclopropylimidazolidine-2,4-dione] | – | – |
| 61 | 27 | 47 | Cn1ccnc1C1(CCC(=O)N2Cc3cc(Cl)c(C(F)(F)F)cc3C2)NC(=O)NC1=O (stereo not shown) [Example 73, 5-(3-(5-chloro-6-(trifluoromethyl)isoindolin-2-yl)-3-oxopropyl)-5-(1-methyl-1H-imidazol-2-yl)imidazolidine-2,4-dione] | – | – |
| 120 | 75 | 110 | Cc1cc(C2(CCC(=O)N3Cc4cc(Cl)c(C(F)(F)F)cc4C3)NC(=O)NC2=O)no1 (stereo not shown) [Example 75, 5-(3-(5-chloro-6-(trifluoromethyl)isoindolin-2-yl)-3-oxopropyl)-5-(5-methylisoxazol-3-yl)imidazolidine-2,4-dione] | – | – |
| 260 | 77 | 120 | Cc1nc(C2(CCC(=O)N3Cc4cc(Cl)c(C(F)(F)F)cc4C3)NC(=O)NC2=O)co1 (stereo not shown) [Example 81, 5-(3-(5-chloro-6-(trifluoromethyl)isoindolin-2-yl)-3-oxopropyl)-5-(2-methyloxazol-4-yl)imidazolidine-2,4-dione] | – | – |

The remaining lines, values behind:

| Compound | IC50 [1] [nM] | IC50 [2] [nM] | IC50 [3] [nM] | inhibition at 2 µM [4] [%] | inhibition at 20 µM [4] [%] |
| --- | --- | --- | --- | --- | --- |
| O=C1NC(=O)[C@](CCC(=O)N2Cc3ccc(C(F)(F)F)cc3C2)(C2CC2)N1 [Example 1, (S)-5-cyclopropyl-5-(3-oxo-3-(5-(trifluoromethyl)isoindolin-2-yl)propyl)imidazolidine-2,4-dione] | 60 | 88 | 140 | 27 | 61 |
| C[C@H]1CN(C(=O)CC[C@@]2(C3CC3)NC(=O)NC2=O)CCc2ccc(Cl)cc21 [Example 21, (S)-5-(3-((R)-8-chloro-1-methyl-1,2,4,5-tetrahydro-3H-benzo[d]azepin-3-yl)-3-oxopropyl)-5-cyclopropylimidazolidine-2,4-dione] | 20 | 16 | – | 39 | 100 |
| Cc1cc2c(cc1Cl)CN(C(=O)CC[C@@]1(C3CC3)NC(=O)NC1=O)C2 [Example 57, (S)-5-(3-(5-chloro-6-methylisoindolin-2-yl)-3-oxopropyl)-5-cyclopropylimidazolidine-2,4-dione] | 43 | 130 | 190 | – | – |
| Cn1ccnc1C1(CCC(=O)N2Cc3ccc(C(F)(F)F)cc3C2)NC(=O)NC1=O (stereo not shown) [Example 62, 5-(1-methyl-1H-imidazol-2-yl)-5-(3-oxo-3-(5-(trifluoromethyl)isoindolin-2-yl)propyl)imidazolidine-2,4-dione] | 100 | 89 | 290 | – | – |
| [2H]C1([2H])c2cc(Cl)c(Cl)cc2C(C)N1C(=O)CC[C@@]1(C2CC2)NC(=O)NC1=O (stereo partly drawn) [Example 69, (5S)-5-cyclopropyl-5-(3-(5,6-dichloro-1-methylisoindolin-2-yl-3,3-d2)-3-oxopropyl)imidazolidine-2,4-dione] | 68 | 40 | 47 | – | – |
| Cc1cc(C2(CCC(=O)N3Cc4cc(Cl)c(C(F)(F)F)cc4C3)NC(=O)NC2=O)n[nH]1 (stereo not shown) [Example 78, 5-(3-(5-chloro-6-(trifluoromethyl)isoindolin-2-yl)-3-oxopropyl)-5-(5-methyl-1H-pyrazol-3-yl)imidazolidine-2,4-dione] | 160 | 57 | 76 | – | – |
| O=C1NC(=O)C(CCC(=O)N2Cc3cc(Cl)c(C(F)(F)F)cc3C2)(c2ncccn2)N1 (stereo not shown) [Example 79, 5-(3-(5-chloro-6-(trifluoromethyl)isoindolin-2-yl)-3-oxopropyl)-5-(pyrimidin-2-yl)imidazolidine-2,4-dione] | 250 | 110 | 210 | – | – |
| [2H]C1([2H])c2cc(Cl)c(Cl)cc2C([2H])([2H])N1C(=O)CC[C@@]1(C2CC2)NC(=O)NC1=O [Example 80, (S)-5-cyclopropyl-5-(3-(5,6-dichloroisoindolin-2-yl-1,1,3,3-d4)-3-oxopropyl)imidazolidine-2,4-dione] | 28 | 32 | – | 30 | 73 |
